The source of these data is article PMC11054269, “Synergistic Biomedical Potential and Molecular Docking Analyses of Coumarin–Triazole Hybrids as Tyrosinase Inhibitors: Design, Synthesis, In Vitro Profiling, and In Silico Studies” (Pharmaceuticals, 2024).

Values joined by “and” are separate entries in the source; they are usually repeats but may differ in a detail not shown here. Identical values can stand only once. Like-named read-outs stand apart in the source and are kept apart here.

One data set concerns the target tyrosinase. Kind of data set: spectrophotometric tyrosinase inhibition assay with L-DOPA as substrate. Type of data set: biochemical, Bacillus subtilis NCTC 10400. As to conditions: for %Age Inhibition: test concentration not given. The procedure:
The synthesized coumarin–triazole hybrids were subjected to spectrophotometric assay for tyrosinase by employing […]. The tyrosine enzyme was extracted from Bacillus subtilis NCTC 10400. The anti-tyrosinase potential of all the coumarin–triazole hybrids was screened by using L-DOPA (levodopa) as the substrate. All the coumarin derivatives were dissolved in DMSO. […] The coumarin derivatives along with the tyrosine enzyme (0.5 mg/mL) were pre-incubated for 10 min in buffer at 25 °C. Pre-incubation of tyrosinase and coumarin derivative was followed by the addition of levodopa (0.5 mM), and the reaction was monitored by absorbance measurement at 475 nm. The IC50 values were calculated by interpolation of the dose–response curves. The following formula was applied to calculate the percentage inhibition of tyrosinase:%age Inhibition = (B − S/B) × 100 where S and B are the absorbance values for the sample and blank, respectively.

[1] abbreviates: L-DOPA 0.5 mM, pH 6.8, 25 °C, means ± SEs (n = 3), read-out: IC50.
The mark [2] stands for this setting: L-DOPA substrate, unit inferred, read-out: IC50 (unit inferred).

In turn, `COc1ccc(-n2c(SCC(=O)Oc3ccc4c(C)cc(=O)oc4c3)nnc2-c2cc3cc(Br)ccc3o2)cc1` [Compound 17e, 4-Methyl-2-oxo-2H-chromen-7-yl-2-((5-(5-bromobenzofuran-2-yl)-4-(4-methoxyphenyl)-4H-1,2,4-triazol-3-yl)thio)acetate] registered a melting point of 220 °C. Besides, the IC50 on tyrosinase (setting [1]) is 0.339 µM and 0.33 µM. The “%Age Inhibition” value in the data set on tyrosinase (L-DOPA 0.5 mM, pH 6.8, 25 °C) stood at 30.85 ± 0.15%. Further, the IC50 on tyrosinase (setting [2]) turned out to be 0.339 ± 0.08 µM.
Turning to `Cc1cc(=O)oc2cc(OC(=O)CSc3nnc(-c4cc5cc(Br)ccc5o4)n3-c3ccccc3)ccc12` [Compound 17d, 4-Methyl-2-oxo-2H-chromen-7-yl-2-((5-(5-bromobenzofuran-2-yl)-4-phenyl-4H-1,2,4-triazol-3-yl)thio)acetate], the melting point amounted to 232 °C. The IC50 on tyrosinase (setting [1]) came out at 5.89 ± 0.09 µM. Also, the “%Age Inhibition” value in the data set on tyrosinase (L-DOPA 0.5 mM, pH 6.8, 25 °C) is 23.097 ± 0.13% and 23.09 ± 0.13%. The IC50 on tyrosinase (setting [2]) was 5.89 ± 0.09 µM.
In the case of `Cc1cc(=O)oc2cc(OC(=O)CSc3nnc(-c4cc5cc(Cl)ccc5o4)n3-c3ccccc3)ccc12` [Compound 17f, 4-Methyl-2-oxo-2H-chromen-7-yl-2-((5-(5-chlorobenzofuran-2-yl)-4-phenyl-4H-1,2,4-triazol-3-yl)thio)acetate], the melting point was found to be 226 °C. For the same compound, the IC50 on tyrosinase (setting [1]) was 3.15 µM and 3.14 µM. For the same compound, the “%Age Inhibition” value in the data set on tyrosinase (L-DOPA 0.5 mM, pH 6.8, 25 °C) was 36.134 ± 0.21% and 36.13 ± 0.21%. Also, the IC50 on tyrosinase (setting [2]) is 3.15 ± 0.23 µM.
For `O=c1cc(CO)occ1O` [Kojic acid, reference compound], in the data set on tyrosinase (L-DOPA 0.5 mM, pH 6.8, 25 °C), the “%Age Inhibition” value is on record as 6.79 ± 0.58%.
As for `COc1cccc2cc(-c3nnc(SCC(=O)Oc4ccc5c(C)cc(=O)oc5c4)n3-c3ccccc3)oc12` [Compound 17b, 4-Methyl-2-oxo-2H-chromen-7-yl-2-((5-(7-methoxybenzofuran-2-yl)-4-phenyl-4H-1,2,4-triazol-3-yl)thio)acetate], the melting point worked out at 140 °C. Further, the IC50 on tyrosinase (setting [1]) was determined as 14.1 ± 0.17 µM. In the data set with tyrosinase (L-DOPA 0.5 mM, pH 6.8, 25 °C), the “%Age Inhibition” value was 6.3009 ± 0.14% and 6.30 ± 0.14%. Moreover, the concentration for half-maximal inhibition (IC50) at tyrosinase (setting [2]) turned out to be 14.1 ± 0.17 µM.
Compound `COc1ccc(-n2c(SCC(=O)Oc3ccc4c(C)cc(=O)oc4c3)nnc2-c2cc3cccc(OC)c3o2)cc1` [Compound 17c, 4-Methyl-2-oxo-2H-chromen-7-yl-2-((5-(7-methoxybenzofuran-2-yl)-4-(4-methoxyphenyl)-4H-1,2,4-triazol-3-yl)thio)acetate] yielded a melting point of 137 °C. On tyrosinase (setting [1]), the IC50 was 13 ± 0.32 µM. Further, in the data set on tyrosinase (L-DOPA 0.5 mM, pH 6.8, 25 °C), the “%Age Inhibition” value came to 5.11 ± 0.15%. At tyrosinase (setting [2]), the IC50 turned out to be 13 ± 0.32 µM.
The compound `Cc1cc(=O)oc2cc(OC(=O)CSc3nnc(-c4cc5ccccc5o4)n3-c3ccccc3)ccc12` [Compound 17a, 4-Methyl-2-oxo-2H-chromen-7-yl-2-((5-(benzofuran-2-yl)-4-phenyl-4H-1,2,4-triazol-3-yl)thio)acetate] yielded a melting point of 152 °C. At tyrosinase (setting [1]), the IC50 stood at 8.13 ± 0.13 µM. Further, the “%Age Inhibition” value in the data set with tyrosinase (L-DOPA 0.5 mM, pH 6.8, 25 °C) is 12.023 ± 0.21% and 12.02 ± 0.21%. Further, the IC50 at tyrosinase (setting [2]) was 8.14 ± 0.13 µM.
On to `Cc1cc(=O)oc2cc(OC(=O)CSc3nnc(-c4cc5c(ccc6ccccc65)o4)n3-c3ccccc3)ccc12` [Compound 17h, 4-Methyl-2-oxo-2H-chromen-7-yl-2-((5-(naphtho[2,1-b]furan-2-yl)-4-phenyl-4H-1,2,4-triazol-3-yl)thio)acetate], for which the IC50 at tyrosinase (setting [1]) was determined as 5.13 ± 0.05 µM. Further, in the data set on tyrosinase (L-DOPA 0.5 mM, pH 6.8, 25 °C), the “%Age Inhibition” value came to 30.62 ± 0.33%.
Take `COc1ccc(-n2c(SCC(=O)Oc3ccc4c(C)cc(=O)oc4c3)nnc2-c2cc3cc(Cl)ccc3o2)cc1` [Compound 17g, 4-Methyl-2-oxo-2H-chromen-7-yl2-((5-(5-chlorobenzofuran-2-yl)-4-(4-methoxyphenyl)-4H-1,2,4-triazol-3-yl)thio)acetate]: the melting point was determined as 200 °C. The IC50 at tyrosinase (setting [1]) amounted to 3.98 µM. Besides, the “%Age Inhibition” value in the data set with tyrosinase (L-DOPA 0.5 mM, pH 6.8, 25 °C) was 31.0609 ± 0.19% and 31.060 ± 0.19%. Moreover, at tyrosinase (setting [2]), the IC50 turned out to be 3.98 ± 0.12 µM.
